Bases are written 5' to 3'; sugars and linkages follow in the same order, as letters with counts (s phosphorothioate, o phosphodiester; PS: all linkages phosphorothioate). The collection does not say whether C is 5-methylated. l = locked nucleic acid (LNA); d = 2'-deoxy (DNA) A value given as a limit tells only on which side of the number the result lay.

The target of this data set is Tau. Kind of data set: rat primary cortical neurons, FLIPR, 25 uM ASO.
With “TCAAACACACCTTCATTTAC (sugars l2 d14 l4, PS)”, the calcium oscillation score is 82.2 % of control. As to “TCCCCATTTATCCTTCAT (sugars l2 d13 l3, PS)”, the calcium oscillation score was 77.3 % of control. With AATTAGTCACATACCA (sugars l4 d8 l4, PS), the calcium oscillation score was 85 % of control. In the case of CAACAGATATTCATTCC (sugars l4 d9 l4, PS) it was 60.6 % of control; in that of “CCAGGGACGTGGGTGATATT (sugars l3 d14 l3, PS)”, 0 % of control.

Regarding “AAAATATCCTTACCATCC (sugars l4 d10 l4, PS)”, the calcium oscillation score was 70.2 % of control. For the sequence CCTTTGAAAGTCCTTT (sugars l3 d9 l4, PS), the calcium oscillation score is 90.5 % of control. With “AATCCATTTATATTCTTTTA (sugars l4 d12 l4, PS)”, the calcium oscillation score was 38.5 % of control.

For TTGTAGACTATTTG (sugars l3 d8 l3, PS), the calcium oscillation score was 63.3 % of control. In the case of “CAGCTAGTGGTGCCACCTGA (sugars l3 d14 l3, PS)” it was 16.5 % of control; in that of “AGATCATCCATTTTCTT (sugars l2 d11 l4, PS)”, 55.3 % of control.

“ATTTCCAAATTCACTTTTAC (sugars lllddldddddddddldlll, PS)”: the calcium oscillation score was 125 % of control. For the sequence CTGTGCTTCAGGCCTT (sugars l3 d10 l3, PS), the calcium oscillation score was 51 % of control.

For GTCTGTCTTGGCTTTG (sugars l3 d10 l3, PS), the calcium oscillation score is 0 % of control.

Take CACCTCCTGGTTTATG (sugars l3 d10 l3, PS): the calcium oscillation score was 65.3 % of control.

CCTTAAAGCTCCAACA (sugars l4 d10 l2, PS): the calcium oscillation score was 94.6 % of control. For the sequence “CAGGGACCCAATCTTCGACT (sugars l3 d14 l3, PS)”, the calcium oscillation score was 9.04 % of control. Take “CTAAGCACTTTACCCATC (sugars l3 d13 l2, PS)”: the calcium oscillation score was 97.6 % of control. Regarding GTTTGTAGACTATTT (sugars l3 d9 l3, PS), the calcium oscillation score was 0 % of control. “ATCTTATTGCTTTCCAA (sugars l4 d10 l3, PS)”: the calcium oscillation score is 75.3 % of control. For CATGATCTTAGGCTG (sugars l3 d9 l3, PS), the calcium oscillation score was 46 % of control. Regarding “ATCATAATCCTACCACCA (sugars l3 d13 l2, PS)”, the calcium oscillation score was 87.5 % of control. Take “CCATTCCCTCCAGAACCATC (sugars l3 d14 l3, PS)”: the calcium oscillation score is 36.3 % of control. Regarding AAGGTCAGCTTGTGGG (sugars l3 d10 l3, PS), the calcium oscillation score was 11.4 % of control. For the sequence TGTTGCCTAATGAGCC (sugars l3 d10 l3, PS), the calcium oscillation score is 172 % of control. In the case of CTTCATTCTTGCCCAA (sugars l3 d10 l3, PS), the calcium oscillation score was 33.3 % of control. Consider “AACTGGTTTGTAGACTATTT (sugars l3 d14 l3, PS)”, for which the calcium oscillation score was 0 % of control. With TTTACCAATTTGCCTAA (sugars l4 d9 l4, PS), the calcium oscillation score is 43.1 % of control.

As for CATGTCGATGCTGC (sugars l3 d8 l3, PS), the calcium oscillation score is 30.5 % of control.

On to “TCCCCCAAAATATCTCA (sugars l2 d12 l3, PS)”, for which the calcium oscillation score was 87.1 % of control. As to “TTCACACAACAAACTATTAT (sugars l4 d12 l4, PS)”, the calcium oscillation score is 70.7 % of control. On to “CCTCTTCCACTACAAGCT (sugars l2 d14 l2, PS)”, for which the calcium oscillation score was 49.1 % of control. Regarding “CTTTTTCCATCTTACTAATA (sugars l3 d14 l3, PS)”, the calcium oscillation score was 46.5 % of control. For “AATCCCAGTTTCCCCCA (sugars l4 d11 l2, PS)” the value was 65.6 % of control; for GTTAACTCATCAACAC (sugars l4 d9 l3, PS), 59 % of control. Consider “TACTAGCCCACCCATCAATT (sugars l3 d14 l3, PS)”, for which the calcium oscillation score was 54.4 % of control. As to “TTATTTCCAAATTCACTTTT (sugars lldllddddddddddlldll, PS)”, the calcium oscillation score is 121 % of control. For “CATCCATTTTCTGACTCT (sugars l4 d12 l2, PS)”, the calcium oscillation score was 42.4 % of control. As to TTAATTTCACCCTC (sugars l3 d8 l3, PS), the calcium oscillation score is 44.1 % of control. In the case of “CTTTATTTCCAAATTCAC (sugars l4 d10 l4, PS)”, the calcium oscillation score is 110 % of control. For “GGACGTGGGTGATATTGTCC (sugars l3 d14 l3, PS)”, the calcium oscillation score was 0 % of control.

In the case of TTGATAAAACATCCCT (sugars l4 d8 l4, PS), the calcium oscillation score was 65 % of control. As to “TGTAGACTATTTGCACACTG (sugars l3 d14 l3, PS)”, the calcium oscillation score was 7.41 % of control. In the case of “TCCTGGTTTATGATGGATGT (sugars l3 d14 l3, PS)” it was 5.81 % of control; in that of GATCTTAGGCTGGCCC (sugars l3 d10 l3, PS), 90.7 % of control. With TTGGAGCCTACATAGA (sugars l3 d10 l3, PS), the calcium oscillation score is 0 % of control. In the case of “CATGAGCACTAACTCTAAGT (sugars l3 d14 l3, PS)” it was 47.6 % of control; in that of “TTTCCCCATTTATCCTT (sugars l4 d11 l2, PS)”, 87.4 % of control; in that of “TTCATCTACTTTTCAGCT (sugars l4 d12 l2, PS)”, 47.2 % of control. For the sequence TGTCGATGCTGCCG (sugars l3 d8 l3, PS), the calcium oscillation score was 52.2 % of control.

Regarding ACTGGTTAGCCCTAAA (sugars l3 d10 l3, PS), the calcium oscillation score was 3.83 % of control. Turning to “CAACAATCCAACCACTAA (sugars l4 d10 l4, PS)”, the calcium oscillation score is 74.1 % of control.

On to “AACCAGCTAGTGGTGCCACC (sugars l3 d14 l3, PS)”, for which the calcium oscillation score was 33 % of control.

“TGATATTATCCTTTGAGCCA (sugars l3 d14 l3, PS)”: the calcium oscillation score is 27.4 % of control. In the case of GTCCCGAGCCAAAG (sugars l3 d8 l3, PS), the calcium oscillation score was 0 % of control. “TATTTCCAAATTCACTTTTA (sugars lllddldddddddddlldll, PS)”: the calcium oscillation score was 127 % of control. In the case of “CTTAATTCATTTAATTCTCT (sugars l3 d13 l4, PS)”, the calcium oscillation score was 90.1 % of control.

Take CTACAAACCAGTTACC (sugars l3 d9 l4, PS): the calcium oscillation score is 107 % of control. In the case of ACTTCTAATTTAGTCAC (sugars l4 d9 l4, PS), the calcium oscillation score is 77.2 % of control.

In the case of AGAAATAAGTGGTAGT (sugars l2 d11 l3, PS), the calcium oscillation score is 102 % of control. For the sequence TGGTTAGCCCTAAAGT (sugars l3 d10 l3, PS), the calcium oscillation score was 77 % of control.

For the sequence “TATTTCCAAATTCACTTTTA (sugars l2 d16 l2, PS)”, the calcium oscillation score is ≥ 200 % of control. For “TTGCAACTTTAACTCCA (sugars l4 d11 l2, PS)” the value was 80.8 % of control; for CAGTCCCGTCTTTGCT (sugars l3 d10 l3, PS), 0 % of control.

In the case of “CATCAGTCTTATCTCCC (sugars l2 d13 l2, PS)”, the calcium oscillation score was 54.7 % of control.

With GGCTTTGGCGTTCTCG (sugars l3 d10 l3, PS), the calcium oscillation score is 1.35 % of control. For the sequence GCGTTCTCGCGGAA (sugars l3 d8 l3, PS), the calcium oscillation score is 3.83 % of control.

Regarding “CCACCCAAACTCCAAGTT (sugars l2 d14 l2, PS)”, the calcium oscillation score is 52 % of control.

The values are drawn from the OligoGym collection.
